These results are taken from PMC7700175, “(E)-1-(Furan-2-yl)-(substituted phenyl)prop-2-en-1-one Derivatives as Tyrosinase Inhibitors and Melanogenesis Inhibition: An In Vitro and In Silico Study” (Molecules, 2020).

What is called IC50 is the concentration needed to halve the response being measured.

Each structure is given as a SMILES string. Read-outs that look alike come from different tables or passages of the source.

For experiment [1], the target named is T1, Mushroom tyrosinase (EC 1.14.18.1) (Agaricus bisporus, UniProt C7FF04).
T1 construct: purchased Sigma-Aldrich
T1 sequence (C7FF04 1-392): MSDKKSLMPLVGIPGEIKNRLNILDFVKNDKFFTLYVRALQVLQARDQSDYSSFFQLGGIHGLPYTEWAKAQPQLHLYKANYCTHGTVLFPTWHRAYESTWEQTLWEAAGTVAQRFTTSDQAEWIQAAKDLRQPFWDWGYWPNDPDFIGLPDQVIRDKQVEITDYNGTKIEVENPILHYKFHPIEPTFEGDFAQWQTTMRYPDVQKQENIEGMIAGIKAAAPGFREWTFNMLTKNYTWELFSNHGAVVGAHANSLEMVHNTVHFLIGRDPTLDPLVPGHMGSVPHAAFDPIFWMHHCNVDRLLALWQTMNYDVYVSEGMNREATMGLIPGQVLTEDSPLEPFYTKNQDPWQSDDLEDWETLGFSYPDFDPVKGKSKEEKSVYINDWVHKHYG
Also noted: method as in PMID 30360412. The settings on record: earlier results of the authors, cited from earlier work.

The target in experiment [2] is T2, mushroom tyrosinase (Agaricus bisporus, UniProt C7FF04).
T2 construct: purchased Sigma-Aldrich
T2 sequence (C7FF04 1-392): as above
The settings on record: reported inhibitor type of mushroom tyrosinase; cited from earlier work.

Experiment [3] has as its target T1, Mushroom tyrosinase (EC 1.14.18.1). The experiment in a line: Mushroom tyrosinase inhibition assay (L-tyrosine or L-DOPA as substrate). It is filed as biochemical. The method, then: In order to evaluate the inhibitory effects of synthesized furan chalcone derivatives on the enzyme activity, tested compounds were subjected to a mushroom tyrosinase inhibition assay with monophenolase (L-tyrosine) or diphenolase (L-3,4-dihydroxyphenyl-alanine; L-DOPA) as the substrates.
Mushroom tyrosinase inhibition was determined following our previously reported methods. All experiments were done in triplicate. […] The measurement was completed in triplicate for each concentration and averaged. The IC50 values were determined by interpolation of the dose-inhibition % curves.

The mark [4] stands for this setting: IC50 (μM) b, L-DOPA as substrate (diphenolase), mean ± SEM of triplicate.
Setting [5] is: L-DOPA as substrate (diphenolase), mean ± SEM of triplicate, read-out: IC50 (μM) b.
Where [6] appears, read: L-tyrosine as substrate (monophenolase), mean ± SEM of triplicate, read-out: IC50 (μM) a.

Take `O=C(/C=C/c1cccs1)c1ccc(O)cc1O` [(E)-2,4-dihydroxyphenyl-(thiophen-2-yl)prop-2-en-1-one]: the figures for the IC50 in experiment [1] (diphenolase) and in experiment [1] (monophenolase) were 0.93 µM and 0.013 µM, respectively.

As to `O=C(O)/C=C/c1ccccc1` [Cinnamic acid, reference compound], the inhibition type entry in experiment [2] is listed as “mixed-type”. Further, the IC50 in experiment [3] and in experiment [3] (setting [4]) was over 200 µM in each case.

As for `O=C(/C=C/c1ccc(O)cc1)c1ccco1` [Compound 1, (E)-1-(Furan-2-yl)-3-(4-hydroxyphenyl)prop-2-en-1-one], the IC50 was over 200 µM in experiment [3] (setting [5]) and 28.9 ± 1.21 µM in experiment [3] (setting [6]).

Turning to `O=C(/C=C/c1ccc(O)c(O)c1)c1ccco1` [Compound 2, (E)-3-(3,4-Dihydroxyphenyl)-1-(furan-2-yl)prop-2-en-1-one], the IC50 in experiment [3] (setting [5]) was 24.9 ± 3.25 µM; in experiment [3] (setting [6]), 84.9 ± 3.79 µM.

Regarding `COc1cc(/C=C/C(=O)c2ccco2)ccc1O` [Compound 3, (E)-1-(Furan-2-yl)-3-(4-hydroxy-3-methoxyphenyl)prop-2-en-1-one], the IC50 in experiment [3] (setting [5]) and in experiment [3] (setting [6]) was over 200 µM throughout.

Regarding `COc1ccc(/C=C/C(=O)c2ccco2)cc1O` [Compound 4, (E)-1-(Furan-2-yl)-3-(3-hydroxy-4-methoxyphenyl)prop-2-en-1-one], the IC50 is 37.4 ± 4.89 µM in experiment [3] (setting [5]) and 13.6 ± 3.74 µM in experiment [3] (setting [6]).

In the case of `COc1cc(/C=C/C(=O)c2ccco2)cc(OC)c1O` [Compound 5, (E)-1-(Furan-2-yl)-3-(4-hydroxy-3,5-dimethoxyphenyl)prop-2-en-1-one], the IC50 in experiment [3] (setting [5]) and in experiment [3] (setting [6]) was over 200 µM each time.

With `O=C(/C=C/c1ccc(O)c(Br)c1)c1ccco1` [Compound 6, (E)-3-(3-Bromo-4-hydroxyphenyl)-1-(furan-2-yl)prop-2-en-1-one], the IC50 in experiment [3] (setting [5]) is over 200 µM; in experiment [3] (setting [6]) it was 51.2 ± 3.73 µM.

On to `O=C(/C=C/c1cc(Br)c(O)c(Br)c1)c1ccco1` [Compound 7, (E)-3-(3,5-Dibromo-4-hydroxyphenyl)-1-(furan-2-yl)prop-2-en-1-one], for which the figures for the IC50 in experiment [3] (setting [5]) and in experiment [3] (setting [6]) were 27.2 ± 0.38 µM and over 200 µM, respectively.

With `O=C(O)c1ccccc1C(=O)O` [Phthalic acid, reference compound], in experiment [2], the inhibition type entry is on record as “mixed-type”. In addition, the IC50 in experiment [3] and in experiment [3] (setting [4]) was over 200 µM in each case.
